Data set [1] is described as follows: Inhibition of arthritis in the adjuvant-induced arthritis model in the Lewis rat. It counts as in vivo. As to conditions: for ED50: Rattus norvegicus, ip, 384 h; for Potency compared with indomethacin: i.p., adjuvant arthritis model. The text has this:
One similarity is the sensitivity to certain therapeutic treatments known to be active in humans. Also, therapeutic doses in humans are similar to therapeutic doses in the adjuvant arthritis model. Examples include NSAIDs, steroids, methotrexate, immunosuppressive drugs, such as cyclosporin, and cytotoxic drugs, such as cyclophosphamide and allopurinol. Jeurissen et. al., Arthritis and Rheumatism 34, 961-972 (1991); Yocum et. al., Annals of Internal Medicine 109, 863-869 (1988); Rau, et. al., Arthritis and Rheumatism 34, 1236-1244 (1991); Otterness and Bliven, supra; Ward, Am. J. Med. Medicine. pp. 3-9 (Jul. 13, 1984).
Lewis rats were given a 0.1 ml injection of adjuvant (1 mg/animal) into the base of the tail on day 0. Swelling of the feet and ankles was first noted on days 10-12. Maximal swelling was observed on days 16-20. The cell infiltrate of the chronic inflammatory responses is predominantly mononuclear (indicating the presence of cell-mediated immunity). Animals were observed daily, and ankle diameter was measured in millimeters on days 12 and 16 using a hand-held dial micrometer. The degree of swelling was assessed by calculating the mean difference between day 16 and day 0 ankle diameter. The results are expressed as the percent inhibition of the increase in ankle diameter on day 16. At this point the animals were sacrificed and tissues were taken for histologic evaluation.
Animals were administered test drugs, suspended in 5% polyethylene glycol and 0.5% Tween-80 in phosphate buffered saline (p.o. or i.p.) once each day from day 1 to day 16.

For data set [2] the following is noted: cited from earlier work.
For a further data set, the system named is L-type Ca2+ channels. As to conditions: fibroblasts, macrophage/monocyte-like cells, Kuppfer cells; cited from earlier work.
A short description of data set [3]: Inhibition of arthritis in the passive transfer model. Format: in vivo, Lewis rat. As for the experimental part: Another arthritis model often used is the passive transfer model. In the passive transfer model of adjuvant arthritis, spleen cells are harvested from animals 12-14 days after the animals have been injected with adjuvant, cultured 24 hours in vitro with the T-cell mitogen, concanavaLin A, and injected into naive rats. Within 14-20 days, arthritis develops in the paws. […] Otterness and Bliven, supra.
Nimodipine was also tested for its ability to inhibit arthritis in the passive-transfer model. Otterness and Bliven, supra.
Spleens were harvested from naive rats or from rats 9-12 days after sensitization with complete Freund's adjuvant. Single cell suspensions from spleen were prepared and cells were cultured for 24 hours with the T cell mitogen, concanavalin A. Spleen cells were harvested and injected, i.v., into naive animals. Ankle diameters were determined 14-18 days after injection of spleen cells from naive or sensitized animals into naive animals. Animals were administered nimodipine at 10 mg/kg/day, i.p., suspended in 5% polyethylene glycol and 0.5% Tween-80 in phosphate-buffered saline.

The conditions of data set [4]: cited from earlier work. This is another data set of the same source.

The text below walks through data of patent US5478848A (priority 1994, dated 1995).

Where two headings read alike, the source gives them in different places.

On to `COc1ccc(CCN(C)CCCC(C#N)(c2ccc(OC)c(OC)c2)C(C)C)cc1OC` (stereo not shown) [verapamil], for which the ED50 in data set [1] came to 10 mg/kg.

As to `COc1ccc2c(c1)c(CC(=O)O)c(C)n2C(=O)c1ccc(Cl)cc1` [indomethacin], in data set [1], the ED50 amounted to 3 ± 1 mg/kg. Besides, in data set [2] (human, in vivo), the “Patients experiencing untoward side effects” value was 35-50% and the “Patients forced to discontinue use” value is “about 20%”. For the same compound, the “Ulceration of the upper gastrointestinal tract / gastrointestinal bleeding” value in data set [2] (therapeutic doses used in rheumatoid arthritis) was “ulceration of the upper gastrointestinal tract leading to gastrointestinal bleeding is common”.

On to `COC(=O)C1=C(C)NC(C)=C([N+](=O)[O-])C1c1ccccc1C(F)(F)F` (stereo not shown) [Bay K 8644], for which the “Entry of Ca2+ into non-excitable cells” value in the data set with L-type Ca2+ channels was “stimulated”.

Take `COCCOC(=O)C1=C(C)NC(C)=C(C(=O)OC(C)C)C1c1cccc([N+](=O)[O-])c1` (stereo not shown) [nimodipine]: in data set [1], the ED50 stood at 4 mg/kg and the “Potency compared with indomethacin” value is listed as “comparable in potency to indomethacin”. Moreover, the “Inhibition of arthritis in the passive transfer model” value in data set [3] (10 mg antagonist/kg body weight/day) is given as “completely inhibited arthritis”. In addition, the “Increase in paw diameter” value in data set [3] (sensitized T cells, 10 mg/kg/day, i.p., 14-18 days after injection of spleen cells) was determined as 0.2 ± 0.05 mm. Further, the Gastrointestinal irritation entry in data set [4] (acute, sub-acute and chronic exposure, even at supra-therapeutic concentrations, NDA applications) is listed as “have not revealed any gastrointestinal irritation”. Further, the Gastrointestinal toxicity entry in data set [4] (expected therapeutic dose in rheumatoid arthritis, prolonged periods of treatment) is given as “no gastrointestinal toxicity has been observed”.

Consider `COC(=O)C1=C(C)NC(C)=C(C(=O)OCC(C)C)C1c1ccccc1[N+](=O)[O-]` (stereo not shown) [nisoldipine], for which the ED50 in data set [1] (i.p. dosage, once each day from day 1 to day 16, increase in ankle diameter on day 16, read-out: ED50) is less than 1 mg/kg. In addition, in data set [1], the “Potency compared with indomethacin” value is listed as “comparable in potency to indomethacin”.

For `COC(=O)C1=C(C)NC(C)=C(C(=O)OC)C1c1ccccc1[N+](=O)[O-]` [nifedipine], in data set [1], the 50% effective dose (ED50) is 11 mg/kg.

Consider `CC1=C(CC(=O)O)c2cc(F)ccc2/C1=C\c1ccc([S+](C)[O-])cc1` (stereo not shown) [sulindac], for which, in data set [2] (human, in vivo), the “Potency relative to indomethacin” value is listed as “only half as potent as indomethacin” and the Toxic side effects result is recorded as “has toxic side effects of its own”.

Consider `CN(Cc1cnc2nc(N)nc(N)c2n1)c1ccc(C(=O)N[C@@H](CCC(=O)O)C(=O)O)cc1` [methotrexate], for which the “Progressive dose-related hepatic changes” value in data set [2] (extended periods of treatment, correlates with ethanol ingestion) is given as “progressive dose-related hepatic changes”. Also, in data set [2] (human, in vivo), the “Hepatic effects in patients treated for rheumatoid arthritis” value is “Hepatic fibrosis and cirrhosis have been reported”.
